# Measurements: patent US20100287636A1, “COMPOSITIONS AND METHODS FOR INHIBITING INDUCIBLE T CELL KINASE (ITK) AND TREATING ASTHMA AND BRONCHIAL INFLAMMATIONS” (San Diego State University Foundation, dba San Diego State …, priority 2007, published 2010)
# No end group written: not given here.
# T1: SH3 domain of ITK (Mus musculus, UniProt Q03526)
# T1 sequence (Q03526 177-237 limits assumed): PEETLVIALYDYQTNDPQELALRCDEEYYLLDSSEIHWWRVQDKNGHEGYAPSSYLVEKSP
# T2: ITK-SLP76 interaction (Homo sapiens, UniProt Q08881)
# T2 construct: endogenous in cells; host or cells: Jurkat T cells
# T2 sequence (Q08881 1-620): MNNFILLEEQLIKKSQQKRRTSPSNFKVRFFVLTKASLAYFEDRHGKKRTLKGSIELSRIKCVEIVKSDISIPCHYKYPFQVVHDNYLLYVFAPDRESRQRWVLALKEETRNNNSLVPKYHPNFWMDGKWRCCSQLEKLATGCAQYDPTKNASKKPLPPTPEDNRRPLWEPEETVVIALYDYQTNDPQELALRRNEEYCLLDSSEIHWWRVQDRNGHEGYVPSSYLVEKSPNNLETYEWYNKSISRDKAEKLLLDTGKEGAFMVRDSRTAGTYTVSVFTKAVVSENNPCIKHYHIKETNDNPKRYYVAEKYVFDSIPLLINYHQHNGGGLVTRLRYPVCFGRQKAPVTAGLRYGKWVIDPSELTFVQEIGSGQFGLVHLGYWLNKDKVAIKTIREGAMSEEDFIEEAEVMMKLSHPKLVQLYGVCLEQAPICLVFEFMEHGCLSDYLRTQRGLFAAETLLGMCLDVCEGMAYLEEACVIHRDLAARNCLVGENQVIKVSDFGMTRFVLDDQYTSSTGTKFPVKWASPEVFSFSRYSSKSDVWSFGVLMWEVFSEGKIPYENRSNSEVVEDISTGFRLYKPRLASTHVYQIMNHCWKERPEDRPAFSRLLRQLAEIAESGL
# T3: ITK (Mus musculus, UniProt Q03526)
# T3 construct: endogenous in cells; host or cells: primary mouse splenic lymphocytes
# T3 sequence (Q03526 1-625): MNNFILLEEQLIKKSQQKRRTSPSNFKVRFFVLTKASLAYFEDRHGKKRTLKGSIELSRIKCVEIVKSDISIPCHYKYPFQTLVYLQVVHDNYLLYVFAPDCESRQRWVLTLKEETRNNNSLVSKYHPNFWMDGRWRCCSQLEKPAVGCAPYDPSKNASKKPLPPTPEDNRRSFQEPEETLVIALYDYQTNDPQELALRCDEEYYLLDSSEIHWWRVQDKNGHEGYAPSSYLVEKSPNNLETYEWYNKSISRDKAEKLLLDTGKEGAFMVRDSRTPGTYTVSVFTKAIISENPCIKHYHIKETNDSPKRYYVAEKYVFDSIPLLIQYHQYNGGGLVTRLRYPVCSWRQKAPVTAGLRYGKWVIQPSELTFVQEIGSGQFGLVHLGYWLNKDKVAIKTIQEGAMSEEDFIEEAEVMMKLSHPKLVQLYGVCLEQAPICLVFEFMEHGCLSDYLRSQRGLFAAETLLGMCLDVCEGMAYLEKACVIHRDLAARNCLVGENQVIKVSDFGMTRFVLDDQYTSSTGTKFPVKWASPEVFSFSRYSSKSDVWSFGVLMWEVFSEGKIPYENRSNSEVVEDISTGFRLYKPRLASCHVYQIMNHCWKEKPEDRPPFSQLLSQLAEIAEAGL
# T4: ITK (Homo sapiens, UniProt Q08881)
# T4 construct: endogenous in cells; host or cells: Jurkat T cells
# T4 sequence (Q08881 1-620): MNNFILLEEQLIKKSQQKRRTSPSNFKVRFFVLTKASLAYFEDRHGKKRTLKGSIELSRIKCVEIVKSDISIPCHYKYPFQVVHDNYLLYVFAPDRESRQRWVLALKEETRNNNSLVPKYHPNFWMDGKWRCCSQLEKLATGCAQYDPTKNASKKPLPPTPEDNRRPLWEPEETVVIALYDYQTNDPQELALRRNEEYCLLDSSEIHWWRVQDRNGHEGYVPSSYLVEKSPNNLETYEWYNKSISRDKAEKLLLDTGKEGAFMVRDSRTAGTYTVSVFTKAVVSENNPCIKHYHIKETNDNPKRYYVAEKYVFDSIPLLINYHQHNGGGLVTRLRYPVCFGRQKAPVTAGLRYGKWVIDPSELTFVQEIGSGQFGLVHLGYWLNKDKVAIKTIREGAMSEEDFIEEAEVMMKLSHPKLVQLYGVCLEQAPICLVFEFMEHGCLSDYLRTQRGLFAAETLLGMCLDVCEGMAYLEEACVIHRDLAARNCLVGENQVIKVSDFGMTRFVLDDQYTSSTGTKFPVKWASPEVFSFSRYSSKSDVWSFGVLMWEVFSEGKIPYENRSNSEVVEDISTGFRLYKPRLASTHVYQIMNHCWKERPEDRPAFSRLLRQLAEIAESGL
# T5: Inducible T cell Kinase (ITK), endogenous in Jurkat T cells (human, UniProt Q08881 1-620)
# T5 construct: Endogenous intracellular ITK from Jurkat T cell lysates; The tie rests on Jurkat being a human T cell line
# T5 sequence: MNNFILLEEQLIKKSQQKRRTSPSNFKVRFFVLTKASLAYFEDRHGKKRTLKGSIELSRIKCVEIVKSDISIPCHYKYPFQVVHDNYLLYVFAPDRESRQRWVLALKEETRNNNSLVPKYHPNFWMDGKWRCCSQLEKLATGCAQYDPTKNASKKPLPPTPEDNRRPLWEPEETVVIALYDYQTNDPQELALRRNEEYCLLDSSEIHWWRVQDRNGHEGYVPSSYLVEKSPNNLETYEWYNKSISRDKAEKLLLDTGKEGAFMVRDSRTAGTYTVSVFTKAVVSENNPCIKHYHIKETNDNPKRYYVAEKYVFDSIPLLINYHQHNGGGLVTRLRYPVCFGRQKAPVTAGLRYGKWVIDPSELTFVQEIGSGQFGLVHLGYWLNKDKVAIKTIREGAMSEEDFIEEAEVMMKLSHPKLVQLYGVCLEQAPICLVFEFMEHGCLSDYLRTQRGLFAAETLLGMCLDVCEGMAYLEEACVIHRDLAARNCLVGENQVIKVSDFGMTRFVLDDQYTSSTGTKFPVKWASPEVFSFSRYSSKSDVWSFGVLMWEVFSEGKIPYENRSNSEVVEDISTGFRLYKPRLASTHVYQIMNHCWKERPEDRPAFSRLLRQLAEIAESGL
# T6: R9 (nine Arginine amino acids by themselves)
# T6 chain: RRRRRRRRR
# Tests used:
# [1] = target: T1, SH3 domain of ITK; conditions: chemical shift perturbation assays, reference (17); read-out: Kd of the in vitro interaction between peptide and the SH3 domain of ITK; cited from earlier work
# [2] = target: T2, ITK-SLP76 interaction; test: inhibition of inducible ITK-SLP76 association in stimulated Jurkat cells (co-immunoprecipitation); format: cell-based
# Method: (§1) FIG. 1. Inducible Association between ITK and SLP76: Jurkat T cells were stimulated through their TCR for various periods of time and then lysed. Lysates were treated with antibody to SLP-76 (IP: anti-SLP76) and the immune complexes were resolved by gel electrophoresis. The resolved proteins were transferred onto a membrane where ITK and SLP76 were visualized by probing with specific antibodies reactive with these proteins. First, ITK was probed (IB: anti-ITK) and subsequently SLP76 (IB: anti-SLP76). […] The interpretation is that ITK and SLP76 participate in a stimulation inducible signaling complex. Furthermore, the association of ITK and SLP76 in this complex is time dependent. It happens at one (1) minute post stimulation and then the two proteins dissociate.
# (§2) FIG. 4. Inhibition of ITK-SLP76 inducible association by the polyArg-SLP76 peptide conjugate of the invention: We next addressed the important question of whether the presence of the exemplary SLP76 peptide of the invention disrupts the physical association between ITK and SLP76. Jurkat cells were stimulated as described under FIG. 1 above in the presence or absence of various concentrations of the exemplary Arg-conjugated SLP76 peptide of the invention. […] This index was calculated by correcting the ITK signals for the total of SLP 76 signal in each lane and then calculating the ratio over the non-stimulated control. […]
# [3] = target: T3, ITK; test: phosphorylation of ITK on Tyr 511 in mouse splenocytes (flow cytometry); format: cell-based; conditions: text does not separate Jurkat and mouse splenocytes, read-out: peptide concentration for fifty percent inhibition of ITK phosphorylation
# From the text: In view of the significant degree of ITK-SLP 76 inhibition mediated by the exemplary arginine-SLP 76 peptide conjugate of the invention, henceforth called R9-QQP, the next question was whether the exemplary R9-QQP peptide can inhibit the phosphorylation of ITK. This is important because it represents an accurate index of ITK activity; see e.g., referenced (14), below. Furthermore, the data described above have been performed by using the Jurkat T cell line. Even though this is a very useful cellular model for research, it is a leukemic cell line and thus, data obtained with this model should be confirmed in a more normal physiological substrate. Therefore, we also tested the effect of R9-QQP on primary mouse splenic lymphocytes.
# (§3) FIG. 6. […] Following stimulation the cells were stained with specific anti-ITK phosphotyrosine antibodies obtained from a commercial source (BD Biosciences) and following the manufacturer's instructions for intracytoplasmic staining. The stained samples were analyzed in a flow cytometer and the percent phosphorylation related to control (100%) was quantified. […] Fifty percent inhibition was achieved by approximately 1 μM peptide
# [4] = tested on: Jurkat cells; test: viability measurements on Jurkat cells; format: cell-based; conditions: highest concentration tested
# [5] = target: T4, ITK; test: phosphorylation of ITK on Tyr 511 in Jurkat cells (flow cytometry); format: cell-based; conditions: text does not separate Jurkat and mouse splenocytes, read-out: peptide concentration for fifty percent inhibition of ITK phosphorylation
# Method: as §3
# [6] = target: T5, Inducible T cell Kinase (ITK), …; test: competition in cells: co-IP of ITK with SLP76 from stimulated Jurkat cells against peptide concentration (association index, average of three experiments)
# Method: as §1, §2
# [7] = target: R9-Scrambled arginine-SLP 76 peptide conjugate (R9-SCR)
# [8] = target: T6, R9 (nine Arginine amino acids by …)
# [9] = target: T5, Inducible T cell Kinase (ITK), …; test: co-IP from TCR-stimulated Jurkat T cell lysates (IP anti-SLP76, IB anti-ITK)
# Method: as §1
molecule,measurement,setting,value
RRRRRRRRRQQPPVPPQRPMA [R9-QQP],Kd,[1],770 nM
same,inhibition at 1 µM,"[2]; 1 μM of peptide, Jurkat cells stimulated 1 minute",~50%
same,IC50,"[2]; Jurkat cells, read-out: concentration for 50% inhibition in the ITK-SLP 76 association",~1000 nM
same,IC50,[3],~1000 nM
same,toxic effects on Jurkat cells (viability),[4],no toxic effects
same,IC50,[5],~1000 nM
"RRRRRRRRRQQPPVPPQRPMA (Synthetic cell-penetrating peptide; It was loaded into Jurkat cells or mouse splenocytes, or injected intraperitoneally into mice; A fluorescein-labelled version was used only for uptake studies, which are not recorded; also called Arg-SLP76 conjugate peptide; polyArg-SLP76 peptide conjugate) [R9-QQP, arginine-SLP76 peptide conjugate RRRRRRRRRQQPPVPPQRPMA]",IC50,[6],~1000 nM
"ITK, endogenous in mouse splenic lymphocytes (protein) MNNFILLEEQLIKKSQQKRRTSPSNFKVRFFVLTKASLAYFEDRHGKKRTLKGSIELSRIKCVEIVKSDISIPCHYKYPFQTLVYLQVVHDNYLLYVFAPDCESRQRWVLTLKEETRNNNSLVSKYHPNFWMDGRWRCCSQLEKPAVGCAPYDPSKNASKKPLPPTPEDNRRSFQEPEETLVIALYDYQTNDPQELALRCDEEYYLLDSSEIHWWRVQDKNGHEGYAPSSYLVEKSPNNLETYEWYNKSISRDKAEKLLLDTGKEGAFMVRDSRTPGTYTVSVFTKAIISENPCIKHYHIKETNDSPKRYYVAEKYVFDSIPLLIQYHQYNGGGLVTRLRYPVCSWRQKAPVTAGLRYGKWVIQPSELTFVQEIGSGQFGLVHLGYWLNKDKVAIKTIQEGAMSEEDFIEEAEVMMKLSHPKLVQLYGVCLEQAPICLVFEFMEHGCLSDYLRSQRGLFAAETLLGMCLDVCEGMAYLEKACVIHRDLAARNCLVGENQVIKVSDFGMTRFVLDDQYTSSTGTKFPVKWASPEVFSFSRYSSKSDVWSFGVLMWEVFSEGKIPYENRSNSEVVEDISTGFRLYKPRLASCHVYQIMNHCWKEKPEDRPPFSQLLSQLAEIAEAGL","ITK Tyr 511 phosphorylation, flow cytometry, primary mouse splenic lymphocytes",[7],None of the two control peptides had significant effects on the phosphorylation of ITK in either Jurkat or primary mouse splenic lymphocytes
same,"ITK Tyr 511 phosphorylation, flow cytometry, primary mouse splenic lymphocytes",[8],None of the two control peptides had significant effects on the phosphorylation of ITK in either Jurkat or primary mouse splenic lymphocytes
"SLP76, endogenous in Jurkat T cells (other, UniProt Q13094 1-533, looked up, whole, on cells; Endogenous intracellular adaptor protein, immunoprecipitated from Jurkat lysates with anti-SLP76 antibody) MALRNVPFRSEVLGWDPDSLADYFKKLNYKDCEKAVKKYHIDGARFLNLTENDIQKFPKLRVPILSKLSQEINKNEERRSIFTRKPQVPRFPEETESHEEDNGGWSSFEEDDYESPNDDQDGEDDGDYESPNEEEEAPVEDDADYEPPPSNDEEALQNSILPAKPFPNSNSMYIDRPPSGKTPQQPPVPPQRPMAALPPPPAGRNHSPLPPPQTNHEEPSRSRNHKTAKLPAPSIDRSTKPPLDRSLAPFDREPFTLGKKPPFSDKPSIPAGRSLGEHLPKIQKPPLPPTTERHERSSPLPGKKPPVPKHGWGPDRRENDEDDVHQRPLPQPALLPMSSNTFPSRSTKPSPMNPLPSSHMPGAFSESNSSFPQSASLPPYFSQGPSNRPPIRAEGRNFPLPLPNKPRPPSPAEEENSLNEEWYVSYITRPEAEAALRKINQDGTFLVRDSSKKTTTNPYVLMVLYKDKVYNIQIRYQKESQVYLLGTGLRGKEDFLSVSDIIDYFRKMPLLLIDGKNRGSRYQCTLTHAAGYP",binding result,[9],binds
